Assay results published in patent US20030138429A1, “Compositions and methods for inhibiting metastasis” (priority 2001, published 2003).

Tests used:
Assay type in all cases: cell-based, human
[1] = tested on: 1-LN cells; assay: [Ca2+]i response of 1-LN cells (Fura-2/AM digital imaging microscopy); settings: for [Ca^2+]i Increase: Yes/No; for [Ca2+]i response after binding of glycoform: glycoform 0.1 μM, in words
Method: Measurement of Intracellular Calcium Levels—Cystolic free calcium [Ca^2+]i, was measured by Digital Imaging Microscopy (DIM) using the fluorescent indicator Fura-2/AM as previously described.
[Ca^2+]i Response to Pg 2 Glycoforms Binding on the Surface of 1-LN Cells—We measured changes in [Ca^2+]i after binding of each individual Pg 2 glycoform to the surface of 1-LN cells. […] Similarly, cells were incubated at 37° C. for 1 h with anti-u-PA or anti-p IgGs (100 μg/ml) which inhibit enzymatic activity prior to addition of the highly sialylated glycoforms (Pgs 2γ, 2δ, and 2ε).

[2] = tested on: 1-LN cells; assay: MMP-9 activity in serum-free culture medium of 1-LN cells (quantitative gelatin zymography); settings: for Active MMP-9: 24 h; for MMP-9 EXPRESSION Secretion: Yes/No
Method: Gelatin Zymography—Protein samples were electrophoresed on gelatin-containing 0.75 mm thick 10% polyacrylamide gels in the presence of SDS under nonreducing conditions. After completion of the electrophoretic run, the gels were incubated with two changes of 2.5% Triton X-100 for 1 h, followed by incubation for 18 h at 37° C. in 0.1 M glycine-NaOH, pH 8.3, containing 1 mM CaCl2, and […], before staining with Coomassie Brilliant Blue R-250 to visualize the lysis bands.
MMP-9 Activity in Solution—MMP-9 activity was measured in tissue culture supernatants by quantitative zymography using as a standard MMP-9 purified by affinity chromatography on gelatin-Sepharose from 1-LN cell conditioned medium (10 liters). Conditioned medium (50 μl), from 1-LN cell monolayers in 48 well culture plates (1.7×10^6 cells/well) incubated with Pg 2 glycoforms and/or inhibitors of Pg binding or activation, were electrophoresed on gelatin-containing gels and the degree of lysis was quantified using a Gelman ACD-15 Automatic Computing Densitometer (Gelman Instrument Company, Ann Arbor, Mich.). Values were determined by integrating the density of the selected bands and expressed in units×mm^2. Each gel was scanned three times and the average value of the integrated density of the bands was used to determine levels of MMP-9 from calibration curves constructed with purified active MMP-9 electrophoresed under the same conditions. The statistical analysis of the data was performed on an IBM 433 DX/S computer using the program SYSTAT® for Windows 95. The statistical significance of differences between means was evaluated by Student's t-test. MMP-9 was positively identified in conditioned medium by electrophoretic separation in 10% SDS-polyacrylamide gels (SDS-PAGE), electroblot of the electrophoresed proteins to nitrocellulose membranes and reaction with an anti-MMP-9 mAb (1 μg/ml) followed by reaction with a secondary alkaline phosphatase conjugated anti-mouse IgG. Detection was performed by reaction with the alkaline phosphatase substrate 5-bromo-4-chloro-3-indolyl phosphate in the presence of nitroblue tetrazolium (1 mM each) in 10 mM Tris-HCl, pH 8.5.
Effect of Pg on the Expression of MMP-9 by 1-LN Cells—Cells were seeded into 48-well culture plates and grown in RPMI 1640 containing 10% fetal bovine serum. Confluent monolayers were then incubated for 24 h with quiescent culture medium containing RPMI 1640 and 0.5% fetal bovine serum. Each individual Pg 2 glycoform (0.1 μM) was added in triplicate to cell monolayers in 300 μl of serum-free RPMI 1640 and incubated for 24 h at 37° C. Culture medium was collected to measure secretion of MMP-9 as described under Experimental Procedures. Prior to analyses of the MMP-9 secreted into the medium by 1-LN cells in the presence of individual Pg 2 glycoforms, we purified MMP-9 from conditioned medium (5 liters) by the technique of Masure et al.. […] A similar analysis of the Mr˜95,000 protein yielded the sequence APRQRQ, corresponding to the amino-terminal sequence of proMMP-9. […] We then proceeded to analyze the MMP-9 secreted into the medium by 1-LN cells incubated with each individual Pg 2 glycoform in serum-free culture medium, using the purified MMP-9 as a standard for quantification by gelatin zymography. These analyses (FIG. 7A) show a major band of active protein with a Mr˜85,000. […] Samples of these conditioned media were also subjected to SDS-PAGE under reducing conditions, electroblotted to nitrocellulose membranes and then reacted with an anti-MMP-9 mAb (FIG. 7B). […] A 4-fold decrease in the production of MMP-9 by cells co-incubated with anti-DPP IV mAb 236.3 and Pg 2ε (p<0.001) (Table II) is clearly observed in the conditioned medium (Lane 6 on FIGS. 8A and 8B, respectively).

[3] = tested on: 1-LN cells; assay: MMP-9 mRNA levels in 1-LN cells by RT-PCR; settings: for MMP-9 EXPRESSION mRNA: Yes/No; for Relative MMP-9 mRNA levels (ratio MMP-9 mRNA/GAPDH mRNA): glycoform 0.1 μM, 24 h, versus serum-free medium alone, in words
Method: RNA Isolation—To determine changes in MMP-9 mRNA induced by Pg, 1-LN cells were grown in 48 well culture plates (1.7×10^6 cells/well) and incubated with each individual Pg 2 glycoform for 24 h at 37° C. Cell monolayers were then rinsed twice in serum-free RPMI 1640 and total RNA extracted by a single-step method, using RNeach Mini kit (Qiagen, Chatsworth, Calif.), according to the manufacturer's instructions.
Measurement of MMP-9 mRNA Levels by Reverse Transcription-PCR (RT-PCR)—Total RNA was reverse transcribed with 1 μg of RNA in a 20 μl reaction mixture, using M-MLV reverse transcriptase (200 U) and oligo d(T) as primer for 1 h at 42° C. The resulting cDNA (5 μl) was used as a template and a […] segment of the MMP-9 cDNA was amplified, using a 24-mer upstream primer (5′-[…]-3′), identical to positions 2079-2102 and a 29-mer downstream primer (5′-[…]-3′) complimentary to positions 2270-2298 of the human MMP-9 mRNA [45]. A 600-bp segment of the glyceraldehyde phosphate dehydrogenase (GAPDH, constitutive internal control) cDNA was co-amplified, using a 24-mer upstream primer (5′-[…]), identical to positions 212-235 and a 24-mer downstream primer (5′-[…]-3′), complimentary to positions 786-809 of the human GAPDH mRNA [46]. Amplification was carried out in a Techne Thermal Cycler PHC-3 for 28 cycles (one cycle=94° C. for 45 s, 60° C. for 45 s, and 72° C. for 45 s). PCR products were analyzed on a 1.2% agarose-ethidium bromide gel. The gels were photographed and the intensity of the individual MMP-9 and GAPDH mRNA bands measured by laser densitometric scanning, using a Molecular Dynamics Personal Densitometer. Changes in MMP-9 mRNA levels were expressed as a relative ratio of MMP-9 mRNA/GAPDH mRNA band intensities.

[4] = SFM + 6-AHA (100 nM) + glycoform 0.1 μM
[5] = SFM + L-lac (100 mM) + glycoform 0.1 μM
[6] = SFM + glycoform 0.1 μM, no additive, 37° C.
[7] = SFM + DPP IV-Ab (50 μg/ml) + glycoform 0.1 μM

Row | Compound | [Ca^2+]i Increase [1] | [Ca2+]i response after binding of glycoform [1] | Active MMP-9 [2, 4] [ng/mL] | Active MMP-9 [2, 5] [ng/mL] | Active MMP-9 [2, 6] [ng/mL] | MMP-9 EXPRESSION Secretion [2] | MMP-9 EXPRESSION mRNA [3] | Relative MMP-9 mRNA levels (ratio MMP-9 mRNA/GAPDH mRNA) [3] | Active MMP-9 [2, 7] [ng/mL] | Active MMP-9 ([2]; SFM + additive alone, no Pg 2 glycoform) [ng/mL] | Decrease in the production of MMP-9 ([2]; cells co-incubated with Pg 2ε, L-lactose 100 mM, anti-DPP IV mAb) [fold] | Stimulation of active MMP-9 secreted ([2]; compared to cells with other Pg 2 glycoforms or culture medium, p<0.001) [fold]
1 | Pg 2β: glycoform of human plasminogen type 2 purified from plasma; 2.2 mol sialic acid/mol Pg | No | did not produce any changes | 0.5 ± 0.13 | 0.17 ± 0.04 | 0.59 ± 0.13 | No | No | did not show a significant change | – | – | – | –
2 | Pg 2φ: glycoform of human plasminogen type 2 purified from plasma; 13.65 mol sialic acid/mol Pg | – | No response | 0.57 ± 0.11 | 0.11 ± 0.02 | 0.63 ± 0.14 | – | – | – | – | – | – | –
3 | Pg 2γ: glycoform of human plasminogen type 2 purified from plasma; 2.95 mol sialic acid/mol Pg | Yes | elicited a [Ca^2+]i response | 0.63 ± 0.21 | 0.15 ± 0.03 | 0.60 ± 0.17 | No | No | did not show a significant change | 0.58 ± 0.12 | – | – | –
4 | Pg 2α: glycoform of human plasminogen type 2 purified from plasma; 1.3 mol sialic acid/mol Pg | No | did not produce any changes | 0.59 ± 0.17 | 0.11 ± 0.02 | 0.59 ± 0.16 | No | No | did not show a significant change | – | – | – | –
5 | Pg 2δ: glycoform of human plasminogen type 2 purified from plasma; 5.77 mol sialic acid/mol Pg | Yes | elicited a [Ca^2+]i response | 0.57 ± 0.14 | 0.18 ± 0.04 | 0.62 ± 0.18 | No | No | did not show a significant change | 0.56 ± 0.11 | – | – | –
6 | OC[C@@H]1O[C@H](O[C@@H]2[C@@H](O)[C@H](O)C(O)O[C@H]2CO)[C@@H](O)[C@H](O)[C@@H]1O (stereo partly drawn) [L-lactose, reference compound] | – | – | – | – | – | – | – | – | – | 0.15 ± 0.03 | 12 | –
7 | Pg 2ε: glycoform of human plasminogen type 2 purified from plasma; 5.34 mol sialic acid/mol Pg | Yes | elicited a [Ca^2+]i response | 1.82 ± 0.23 | 0.14 ± 0.05 | 1.80 ± 0.21 | Yes | Yes | significant increase | 0.49 ± 0.14 | – | – | 3
